Laboratory results as given in patent publication US8859617B2, “Use of furan alkyl for preparing an antidiabetic drug” (Laboratoires Expanscience, priority 2004, dated 2014).

How the values were obtained:
[1] = tested on: mice on HF/HS diet; assay: Blood glucose and insulin analysis; type: in vivo
Description: (§1) We used adult mice (aged 6 weeks) of masculine gender fattened on a high fat/high sucrose diet (HF/HS). Feeding with the HF/HS diet began on mice aged 6 weeks and continued throughout the period of the study. The study was conducted along 2 axes: • prevention: the product was administered as soon as feeding began with the HF/HS diet; • management (curative): the product was administered 12 weeks after the start of the HF/HS diet. Total treatment time (preventive and curative): 23 weeks.
(§2) Each experimental group comprised 10 mice.
(§3) Subsequently the following were analysed: lipoprotein profile (by size exclusion chromatography); apolipoportein Al; lipid composition of the liver (liver triglycerides, cholesterol and free fatty acids); histological analysis of the liver and adipose tissue; staining of accumulated lipids in the liver.

[2] = tested on: PGC-1 (mitochondria biogenesis); assay: mRNA analysis in muscles and BAT: PGC-1; type: in vivo, mice; details: muscle; TZD
Description: In the brown adipose tissue (BAT) and in the muscles, the mRNA expression of 3 genes was determined in 5 mice of each group by real-time Q-RTR-PCR analysis.

[3] = tested on: ACO (target PPARα); assay: mRNA analysis in the liver (Q-RT-PCR): ACO; type: in vivo, mice; details: TZD
Description: (§4) the liver, the mRNA expressions of 8 genes were determined in 5 mice of each group using real-time Q-RT-PCR analysis.

[4] = tested on: mice on HF/HS diet; assay: Intraperitoneal Glucose Tolerance Test (IPGTT); type: in vivo; details: TZD; for Glucose resistance (IPGTT): preventive
Source text: Each study started at D-7 (i.e. 7 days before the start of the HF/HS diet) with an analysis of glucose tolerance using either an intra-peritoneal glucose tolerance test for some of the animals (n=5) or a sensitivity test to intravenous insulin for the other animals (n=5). At D=0 blood samples were taken to obtain basal condition values for all lipid and lipoprotein parameters, then the mice were randomly distributed irrespective of weight. The weight of each mouse and the quantity of food absorbed were measured twice a week. At weeks 3, 8, 15 and 23 the blood was collected after overnight fasting. At weeks 12 and 18 some of the animals (n=5) were subjected to an intra-peritoneal glucose tolerance test, the others (n=5) to a sensitivity test to intravenous insulin.
In addition this prevailing tolerance is often accompanied by insulin resistance. • Protocol: • fasted mice, • measurement of glycaemia at TO, • intra-peritoneal injection of glucose, • measurement of glycaemia 15, 30, 45, 60, 90, 120 and 180 min. after injection, • kinetics performed weeks 1, 12 and 18 in the preventive group and week 18 in the curative group.

[5] = tested on: mice on HF/HS diet; assay: Plasma lipoprotein profile (size exclusion chromatography); type: in vivo; details: TZD
Description: as §1, §2, §3

[6] = tested on: ME, FAS, ACC (fatty acid synthesis); assay: mRNA analysis in the liver (Q-RT-PCR): ME, FAS, ACC; type: in vivo, mice; details: TZD
Description: as §4

[7] = tested on: PEPCK (target PPARγ); assay: mRNA analysis in the liver (Q-RT-PCR): PEPCK; type: in vivo, mice; details: TZD
Description: as §4

[8] = tested on: mice on HF/HS diet; assay: Intra Peritoneal Insulin Sensitive Test (IPIST); type: in vivo; details: preventive
Source text: The HF/HS diet induces a strong resistance to glucose. […] The test used is the Intra Peritoneal Insulin Sensitive Test—IPIST.

[9] = tested on: CYP7A1; assay: mRNA analysis in the liver (Q-RT-PCR): CYP7A1; type: in vivo, mice; details: TZD
Description: as §4

[10] = tested on: mice on HF/HS diet; assay: Blood parameters: plasma lipids (cholesterol, LDL, HDL, TG, FFA); type: in vivo
Description: as §1, §2, §3
The different cholesterol blood levels and different fractions were analysed using a HPLC method.

[11] = tested on: mice on HF/HS diet; assay: Hepatic metabolism: transaminases and alkaline phosphatase (liver toxicity); type: in vivo; details: plasma; considered very moderate, does not appear to reflect liver toxicity
[12] = tested on: mice on HF/HS diet; assay: Weight of mice on HF/HS diet; type: in vivo; details: curative; TZD added to food
Description: as §1, §2

[13] = curative, TZD, after 3 and 11 weeks
[14] = curative, TZD 10 mg/kg/day, (3 W***)
[15] = preventive, TZD 10 mg/kg/day, (3 W***)
[16] = preventive, TZD, after 3, 8, 15 and 23 weeks

Question: With `CN(CCOc1ccc(CC2SC(=O)NC2=O)cc1)c1ccccn1` (stereo not shown) [TZD, Rosiglitazone] as the molecule, how does the GLUCOSE ([1]; curative, TZD 10 mg/kg/day, (3 W**)) read?
Answer: ↓↓

Question: What about the Glucose levels [1, 13] of the same molecule?
Answer: dropped considerably

Question: What about the ““Constitutive” hyperglycaemia” value ([1]; preventive, TZD) of the same molecule?
Answer: return to normal

Question: What about the GLUCOSE ([1]; preventive, TZD 10 mg/kg/day) of the same molecule?
Answer: ↓

Question: What about the INSULIN ([1]; preventive, TZD 10 mg/kg/day) of the same molecule?
Answer: ↓

Question: And the Glucose level reduction ([1]; preventive, TZD, weeks 8, 15 and 23)?
Answer: no longer observed

Question: What about the “PGC-1 (mitochondria biogenesis) mRNA” value [2] of the same molecule?
Answer: ↑ (muscle)

Question: What about the “ACO (target PPARα) mRNA” value [3] of the same molecule?
Answer: ↑

Question: And the “Already established, diet-induced glucose resistance” value ([4]; curative)?
Answer: does not act

Question: And the “Glucose resistance (IPGTT)” value ([4]; at 12 weeks)?
Answer: AUC value intermediate between HF/HS and normal diet

Question: And the “Glucose resistance (IPGTT)” value ([4]; at 18 weeks, return to normal kinetics)?
Answer: completely cancels out the effects of the HF/HS diet

Question: What about the “HDL and VLDL cholesterol fractions” value ([5]; curative, after 3 weeks) of the same molecule?
Answer: reduction

Question: What about the “HDL, LDL and VLDL cholesterol fractions” value ([5]; preventive, weeks 8 and 15) of the same molecule?
Answer: reduction

Question: What about the “ME, FAS, ACC (fatty acid synthesis) mRNA” value [6] of the same molecule?
Answer: ↑↑

Question: And the “PEPCK (target PPARγ) mRNA” value [7]?
Answer: ↑

Question: And the IPIST ([8]; TZD 10 mg/kg/day, (3 W***))?
Answer: ↓↓

Question: And the “Insulin sensitivity (IPIST)” value ([8]; TZD, (15 min))?
Answer: restores sensitivity to insulin

Question: And the “CYP7A1 (conversion oxysterol into biliary acids) mRNA” value [9]?
Answer: ↑↑

Question: And the Triglyceride level ([10]; curative, TZD)?
Answer: No change

Question: And the LDL ([10]; curative, TZD 10 mg/kg/day)?
Answer: ↓

Question: And the HDL [10, 14]?
Answer: ↓↓

Question: And the Total cholesterol [10, 14]?
Answer: ↓↓

Question: What about the HDL cholesterol level [10, 13] of the same molecule?
Answer: reduction

Question: What about the LDL cholesterol level [10, 13] of the same molecule?
Answer: reduction

Question: And the Total cholesterol [10, 13]?
Answer: reduction

Question: And the LDL cholesterol level ([10]; preventive, TZD)?
Answer: downward trend

Question: And the “TG (triglycerides)” value ([10]; preventive, TZD 10 mg/kg/day)?
Answer: ↓

Question: And the HDL [10, 15]?
Answer: ↓↓

Question: And the Total cholesterol [10, 15]?
Answer: ↓↓

Question: What about the HDL cholesterol level [10, 16] of the same molecule?
Answer: significant reduction

Question: And the Total cholesterol level [10, 16]?
Answer: significant reduction

Question: What about the “Plasma levels of triglycerides” value ([10]; preventive, TZD, after 8 weeks, no additional reduction after 15 and 23 weeks) of the same molecule?
Answer: significantly reduced

Question: What about the “Alkaline phosphatase (ALP)” value [11] of the same molecule?
Answer: increase

Question: What about the “Weight loss of overweight mice” value [12] of the same molecule?
Answer: did not cause the overweight mice to lose weight
